Like-named read-outs stand apart in the source and are kept apart here. Marks after values point to notes of the source that are not given here.
Key:
Aβ-42 = assay: Western blotting of Aβ-42 expression in CTXTNA2 astrocytes (in vitro γ-secretase activity); assay type: cell-based, rat; conditions: 24 h
Description: CTXTNA2 cell line, established from primary cultures of type 1 astrocytes from brain frontal cortex tissue of 1 day old rats, was obtained by ECACC (Salisbury, UK). Cells have been maintained in DMEM, 10% FBS at 37 °C, 5% CO2 until sub-confluence and incubated for 24 h with a DMSO solution of drug (concentrations ranging from 1 µM to 100 µM). For detection of cell viability, a Trypan blue dye exclusion test has been performed.
Cell lysates (20 µg) have been electrophoresed and transferred to nitrocellulose membrane. Nitrocellulose membranes, blocked in 5% non-fat milk, 10 mmol/L Tris pH 7.5, 100 mmol/L NaCl, 0.1% Tween-20, have been probed with mouse APP (Millipore, Billerica, MA, USA) and Aβ (Alpha Diagnostic Intl, San Antonio, TX, USA) monoclonal antibodies (Santa Cruz Biotechnology, Santa Cruz, CA, USA), then incubated in the presence of specific enzyme conjugated IgG horseradish peroxidase. Immunoreactive bands have been detected by ECL detection system (Amersham Intl., Buckinghamshire, UK) and analysed by densitometry. Densitometric values, expressed as Integrated Optical Intensity (I.O.I.), have been estimated in a CHEMIDOC XRS system by the QuantiOne 1-D analysis software (BioRad, Richmond, CA, USA). Values obtained have been normalized basing on densitometric values of internal β tubulin. Statistical analysis has been performed using the analysis of variance (ANOVA). Results have been expressed as mean ± SD. Values of p < 0.05 have been considered statistically significant.

[1] = PAMPA-BBB permeability (porcine polar brain lipid extract); assay type: in vitro ADME; conditions: pH 7.4, 18 h of incubation; for Papp at 18 h, 500 µM: PAMPA, read-out: PAMPA-BBB Pe
Description: (§1) The following protocol was applied to measure the Pe through the artificial membrane to predict oral absorption and BBB permeation. In order to study the g.i. permeability, a 2% solution (w/v) of egg lecithin (phosphatidyl choline > 98%, PC) in dodecane was employed as an artificial membrane solution. The effective permeability of BBB was measured using phospholipid mixture from porcine polar brain lipid extract, composed by PC 12.6%, phosphatidylethanolamine (PE) 33.1%, phosphatidylserine (PS) 18.5%, phosphatidylinositol (PI) 4.1%, phospatidic acid (PA) 0.8% and 30.9% of other compounds (purchased from Avantis Polar Lipids, Alabaster, AL, USA). Each donor filtration plate well was then impregnated with 5 µL of this solution carefully, and immediately after 150 µL of phosphate buffer (pH 7.4/pH 6.5), containing co-drug 1 500 µM and iPrOH 20% as co-solvent was added. Then the drug-filled donor plate was placed into the acceptor plate that had been prefilled with the same buffer (300 µL) as acceptor solution. After plate lid was replaced, the resulting assembled donor-acceptor plates were incubated at r.t. for 2 h for PAMPA-GI and 18 h for PAMPA-BBB, following which drugs concentration in the acceptor and donor solutions were determined by HPLC [37].
(§2) Log Pe can be calculated from the equation below: [drawing 10] (2) where Pe is the effective permeability coefficient (cm x s^−1), VD is volume of donor compartment (0.15 cm^3) and VA is volume of acceptor compartment (0.30 cm^3), A is effective filter area (0.28 cm^2), t is incubation time for the assay (s), Cacceptor is the concentration of the compound in the acceptor compartment at the completion of the assay, and Cequilibrium is the concentration of compound at theoretical equilibrium.

[2] = IAM-HPLC affinity for membrane phospholipids (logKIAM/W); assay type: physicochemical; conditions: IAM.PC.MG column, pH 7.0 phosphate buffer/acetonitrile, extrapolated to 100% aqueous eluent
Description: n-Octanol/water partition coefficients were theoretically calculated by the program clogP for windows version 2.0 (Biobyte Corp., Claremont, CA, USA). Affinity for membrane phospholipids, so called “phospholipophilicity”, was measured by HPLC on a phospholipid stationary phase. […] liquid chromatograph (Waters-Millipore, Milford, MA, USA), equipped with a 7125 Rheodyne injection valve and a 486 UV detector (Waters) set at 246 nm, was used. The column was an IAM.PC.MG (Immobilized Artificial Membrane-PhosphatidylCholine-MethylGlycolate) (4.6 mm × 150 mm) (Regis Chemical Company, Morton Grove, IL, USA). The mobile phase was 0.01 M phosphate buffer at pH 7.0 and acetonitrile at percentages ranging from 10 to 35 percent (v/v) (from 1.0 to 4.0 mL/min). The chromatography was carried out at room temperature. All samples were dissolved in methanol (ca. 10^-3 M) and 20 μL samples were injected in the chromatograph. Chromatographic retention data are expressed as the logarithm of the capacity factor, log k, defined as: log k = log [(tr - t0)/t0] (1) where tr and t0 are the retention times of the drug and a non-retained compound (citric acid), respectively. The log k values relative to 100% aqueous eluent (logKIAM/W) were calculated by performing a polycratic method of extrapolation. Each compound was eluted with at least three different mobile phases containing acetonitrile in different percentages (φ). […] All values of log k reported are the average of at least three measurements; the 95% confidence interval never exceeded 0.04 for each log k value. Possible occurrence of retention changes due to column aging was monitored by checking the retention times of five test compounds (amlodipine, p-nitroaniline, toluene, isradipine, and ketoprofen).

[3] = PAMPA-GI permeability (egg lecithin in dodecane); assay type: in vitro ADME; conditions: read-out: PAMPA-GI Pe
Description: as §1, §2

APP = conditions: 24 h
Description: For detection of cell viability, a Trypan blue dye exclusion test has been performed [33].
Cell lysates (20 µg) have been electrophoresed and transferred to nitrocellulose membrane. […] Immunoreactive bands have been detected by ECL detection system (Amersham Intl., Buckinghamshire, UK) and analysed by densitometry. Densitometric values, expressed as Integrated Optical Intensity (I.O.I.), have been estimated in a CHEMIDOC XRS system by the QuantiOne 1-D analysis software (BioRad, Richmond, CA, USA). Values obtained have been normalized basing on densitometric values of internal β tubulin. Statistical analysis has been performed using the analysis of variance (ANOVA). Results have been expressed as mean ± SD. Values of p < 0.05 have been considered statistically significant.

[4] = RP-HPLC retention factor extrapolated to 100% water (KC18/W); assay type: physicochemical; conditions: for KC18/W (retention factor extrapolated to 100% water): RP-HPLC, acetonitrile/water mixtures; for chromatographic logP: by comparison with KC18/W and logP of nisoldipine and lacidipine, read-out: logP calculated from KC18/W
Description: Similarly, due to their high lipophilicity, experimental n-octanol/water lipophilicity values of enantiomers 8/9 were determined by RP-HPLC because their characterization through the “classical” shake-flask method was expected to be difficult and scarcely reproducible. The retention factor, determined in acetonitrile/water mixtures and extrapolated to 100% water (KC18/W) for enantiomers 8/9 was 3.94 (data not shown).

[5] = set-up: method as in doi:10.1016/0223-5234(96)80368-0; conditions: n-octanol/water; cited from earlier work

SMILES | Aβ-42 production, effect in words (Aβ-42; 1 µM to 100 µM, without affecting the APP level) | Expression of Aβ-42 (Aβ-42; 1 µM) | Expression of Aβ-42 (Aβ-42; 10 µM) | Expression of Aβ-42 (Aβ-42; 100 µM) | Papp at 18 h, 500 µM [1] | melting point | LogKIAM/W [2] | Papp at 2 h, 500 µM ([3]; pH 6.5, 2 h of incubation) | Papp at 2 h, 500 µM ([3]; pH 7.4, 2 h of incubation) | Expression of APP (APP; 1 µM) | Expression of APP (APP; 10 µM) | Expression of APP (APP; 100 µM) | PAMPA-BBB Pe [1] | KC18/W (retention factor extrapolated to 100% water) [4] | chromatographic logP [4] | logP (experimentally determined values) [5]
C[C@H](NC(=O)[C@@H](C)c1ccc(-c2ccccc2)c(F)c1)C(=O)N[C@H](C(=O)OC(C)(C)C)c1ccccc1 [Compound 2, tert-Butyl(2S)-({N-[(2S)-2-(2-fluoro-1,1'-biphenyl-4-yl)propanoyl]-L-alanyl}amino)(phenyl)acetate] | highly effective | (20.0 ± 1.1) × 10^−2 | (12.1 ± 0.6) × 10^−2 | (8.4 ± 0.2) × 10^−2 | 2.1 ×10⁻⁶ cm/s | 106 to 108 °C | 3.80 | 3.6 ×10⁻⁶ cm/s | 4.1 ×10⁻⁶ cm/s | (93.1 ± 2.6) × 10^−2 | (93.3 ± 3.5) × 10^−2 | (63.6 ± 2.8) × 10^−2 | – | – | – | –
C[C@H](NC(=O)Cc1ccc(-c2ccccc2)c(F)c1)C(=O)N[C@H](C(=O)OC(C)(C)C)c1ccccc1 [Compound 3, tert-butyl (2S)-({N-[(2-fluoro-1,1'-biphenyl-4-yl)acetyl]-L-alanyl}amino)(phenyl)acetate] | – | (8.8. ± 0.4) × 10^−2 | (10.5 ± 0.4) × 10^−2 | (45.8. ± 1.3) × 10^−2 | – | 104 to 106 °C | 3.64 | 2.1 ×10⁻⁶ cm/s | 2 ×10⁻⁶ cm/s | (64.1 ± 2.3) × 10^−2 | (72.2 ± 2.1) × 10^−2 | (105 ± 3.2) × 10^−2 | 2.0 10^−6 cm/s | – | – | –
CN1C(=O)[C@H](NC(=O)Cc2ccc(-c3ccccc3)c(F)c2)c2ccccc2-c2ccccc21 [Compound 8, 2-(2-Fluoro-1,1'-biphenyl-4-yl)-N-[(7R)-5-methyl-6-oxo-6,7-dihydro-5H-dibenzo[b,d]azepin-7-yl]-acetamide] | – | (31.1 ± 0.9) × 10^−2 | (25.0 ± 1.0) × 10^−2 | (35.2 ± 1.1) × 10^−2 | 2.3 ×10⁻⁶ cm/s | 96 to 100 °C | 3.58 | 2.5 ×10⁻⁶ cm/s | 2.6 ×10⁻⁶ cm/s | (82.3 ± 3.2) × 10^−2 | (68.1 ± 3.2) × 10^−2 | (94.4 ± 4.2) × 10^−2 | – | 3.94 | 5.49 | –
CN1C(=O)[C@@H](NC(=O)Cc2ccc(-c3ccccc3)c(F)c2)c2ccccc2-c2ccccc21 [Compound 9, 2-(2-Fluoro-1,1'-biphenyl-4-yl)-N-[(7S)-5-methyl-6-oxo-6,7-dihydro-5H-dibenzo[b,d]azepin-7-yl]-acetamide] | – | (43.2 ± 2.1) × 10^−2 | (38.4 ± 1.0) × 10^−2 | (14.0 ± 0.5) × 10^−2 | 2.3 ×10⁻⁶ cm/s | 96 to 100 °C | 3.58 | 2.5 ×10⁻⁶ cm/s | 2.6 ×10⁻⁶ cm/s | (68.7 ± 2.2) × 10^−2 | (69.2 ± 1.4) × 10^−2 | (94.3 ± 3.2) × 10^−2 | – | 3.94 | 5.49 | –
CCOC(=O)C1=C(C)NC(C)=C(C(=O)OCC)C1c1ccccc1/C=C/C(=O)OC(C)(C)C [Lacidipine, reference compound] | – | – | – | – | – | – | 3.52 | – | – | – | – | – | – | 4.01 | – | 5.56 ^a
COC(=O)C1=C(C)NC(C)=C(C(=O)OCC(C)C)C1c1ccccc1[N+](=O)[O-] (stereo not shown) [Nisoldipine, reference compound] | – | – | – | – | – | – | 2.63 | – | – | – | – | – | – | 2.99 | – | 4.53 ^a

Reference: article PMC6270570, “New Flurbiprofen Derivatives: Synthesis, Membrane Affinity and Evaluation of in Vitro Effect on β-Amyloid Levels” (Molecules, 2013)
